Laboratory results taken from patent US9353062B2, “Substituted quinolines as bruton's tyrosine kinases inhibitors” (HangzhouDeRenYuCheng Biotechnology Ltd, priority 2012, dated 2016).
pIC50: −log10 of the molar value.

Columns and labels:
[1] = target: T1, Btk (Homo sapiens (Human), UniProt Q06187); test: Btk kinase assay, method B (Kinase-Glo Plus luminescence); assay type: biochemical; conditions: 10 μM ATP
Method: (§1) An in vitro assay which determines the ability of a test compound to inhibit Btk.
b) Method B conducts the kinase assay with the following condition and procedure: The assay was performed using Kinase-Glo Plus luminescence kinase assay kit (Promega). It measures kinase activity by quantitating the amount of ATP remaining in solution following a kinase reaction. The luminescent signal from the assay is correlated with the amount of ATP present and is inversely correlated with the amount of kinase activity.
The compounds were diluted in 10% DMSO and 5 μl of the dilution was added to a 50 μl reaction so that the final concentration of DMSO is 1% in all of reactions. All of the enzymatic reactions were conducted at 30° C. for 40 minutes. […] After the enzymatic reaction, 50 μl of Kinase-Glo Plus Luminescence kinase assay solution (Promega) was added to each reaction and incubate the plate for 5 minutes at room temperature. Luminescence signal was measured using a BioTek Synergy 2 microplate reader. […] The luminescence data were analyzed using the computer software, Graphpad Prism. The difference between luminescence intensities in the absence of Btk (Lut) and in the presence of Btk (Luc) was defined as 100% activity (Lut−Luc). […] The IC50 value was determined by the concentration causing a half-maximal percent activity. […]

[2] = test system: BTK signaling in Ramos cells; test: Btk Ramos Cellular Assay (phosphorylation of BTK substrate PLCγ2); assay type: cell-based; conditions: 1 hour compound incubation, anti-human IgM stimulation, PLCγ2 phosphorylation blot, read-out: inhibition of BTK signaling in Ramos cells, IC50
Method: Ramos cells were grown in suspension in T225 flasks, spun down, resuspended in 50 mL serum-free media and incubated for 1 hour. Compound was added to Ramos cells in serum free media to a final concentration of 1, 0.1, 0.01, or 0.001 μM. Ramos cells were incubated with compound for 1 hour, washed again and resuspended in 100 μL serum-free media. Cells were then stimulated with 1 μg of goat F(ab′)2 Anti-Human IgM and incubated on ice for 10 minutes to activate B cell receptor signaling pathways. After 10 minutes, the cells were washed once with PBS and then lysed on ice with Invitrogen Cell Extraction buffer. Sixteen μg total protein from lysates was loaded on gels and blots were probed for phosphorylation of the BTK substrate PLCγ2.

[3] = target: T1, Btk; test: Btk kinase assay, method A (33P-ATP radiometric); assay type: biochemical; conditions: 10 μM ATP
Method: as §1
a) Method A conducts the kinase assay with the following condition and procedure: Reagent: Base Reaction Buffer; 20 mM Hepes (pH 7.5), 10 mM MgCl2, 1 mM EGTA, 0.02% Brij35, 0.02 mg/ml BSA, 0.1 mM Na3VO4, 2 mM DTT, 1% DMSO.
1. Prepare indicated substrate in freshly prepared Base Reaction Buffer.
2. Deliver any required cofactors to the substrate solution obtained in step 1.
3. Deliver indicated kinase into the substrate solution prepared in step 2 and gently mix.
4. Deliver compounds in DMSO into the kinase reaction mixture prepared in step 3.
5. Deliver ^33P-ATP (specific activity 0.01 μCi/μl final) into the reaction mixture prepared in step 4 to initiate the reaction.
6. Incubate kinase reaction for 120 min. at room temperature.
7. Reactions are spotted onto P81 ion exchange paper (Whatman #3698-915).
8. Washing filters extensively in 0.75% Phosphoric acid.
Compounds were tested in 10-dose IC50 mode with 3-fold serial dilution starting at 10 μM; Reactions were carried out at 10 μM ATP.

T1 sequence (Q06187 whole entry, species assumed): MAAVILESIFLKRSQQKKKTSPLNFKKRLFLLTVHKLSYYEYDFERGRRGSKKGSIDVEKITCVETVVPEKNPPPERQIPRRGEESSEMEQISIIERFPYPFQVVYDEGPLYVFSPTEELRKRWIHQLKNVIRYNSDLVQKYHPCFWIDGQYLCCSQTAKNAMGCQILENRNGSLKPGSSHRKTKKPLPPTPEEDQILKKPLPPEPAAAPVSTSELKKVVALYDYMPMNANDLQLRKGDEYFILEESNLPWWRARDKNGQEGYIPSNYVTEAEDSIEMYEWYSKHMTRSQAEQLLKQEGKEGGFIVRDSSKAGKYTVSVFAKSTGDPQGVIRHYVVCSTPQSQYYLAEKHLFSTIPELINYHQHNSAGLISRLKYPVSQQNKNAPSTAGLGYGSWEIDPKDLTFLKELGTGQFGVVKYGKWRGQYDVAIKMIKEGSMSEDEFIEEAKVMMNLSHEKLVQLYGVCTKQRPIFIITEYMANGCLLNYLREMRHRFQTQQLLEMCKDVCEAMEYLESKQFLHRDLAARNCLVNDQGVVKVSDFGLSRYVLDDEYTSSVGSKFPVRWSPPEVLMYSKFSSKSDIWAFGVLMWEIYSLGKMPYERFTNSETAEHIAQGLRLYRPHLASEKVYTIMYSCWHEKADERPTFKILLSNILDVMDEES

Row | SMILES | pIC50 [1] | pIC50 [2] | pIC50 [3]
1 | CCOc1cc2ncc(C#N)c(Nc3ccc(Oc4ccccc4)cc3)c2cc1NC(=O)/C=C/CN(C)C [Example 1, (E)-N-(3-cyano-7-ethoxy-4-((4-phenoxyphenyl)amino)quinolin-6-yl)-4-(dimethylamino)but-2-enamide] | > 7.00 | > 7.00 | 9.19
2 | CN(C)C/C=C/C(=O)Nc1ccc2ncc(C#N)c(Nc3ccc(Oc4ccccc4)cc3)c2c1 [Example 2, (E)-N-(3-cyano-4-((4-phenoxyphenyl)amino)quinolin-6-yl)-4-(dimethylamino)but-2-enamide] | > 7.00 |  | 
